These results are taken from patent publication US20200031785A1, “METHODS FOR TREATING CHRONIC PAIN AND OPIOID DEPENDENCE USING ADENYLYL CYCLASE INHIBITORS” (Purdue Research Foundation, priority 2017, published 2020).

In one assay the target is T1, hAC8 (Homo sapiens, UniProt P40145).
T1 construct: expressed in transfected cells
The assay is described as follows: Cyclic AMP accumulation in HEK cells stably expressing AC8, stimulated with A23187 (HTRF). Format: cell-based. The note with it: HEK-AC8 cells; for inhibition at 30 µM: HEK293; for IC50: read-out: HEK-AC8 IC50. On the procedure:
(§1) Fresh powders of several robust inhibitors (>90% inhibition) were evaluated in multiple confirmation assays assessing the dose response relationship for inhibiting AC1 and AC8 activity. Confirmation assays used A23817 to selectively stimulate recombinant AC1 or AC8 in the HEK cell background (Cumbay and Watts (2001), J. Pharmacol Exp Ther 297:1201-1399). This approach takes advantage of one unique regulatory property of AC1 for the development of selective inhibitors. Both AC1 and AC8 are robustly activated by Ca^2+/CaM under a variety of conditions, whereas the effects of Ca^2+/CaM on AC3 are modest and conditional requiring activation by G proteins. Previous studies have identified unique Ca^2+/CaM binding domains as one possible site of interaction to achieve AC1 (vs. AC8) selectivity (Masada et al., 2012, Biochemistry 51:7917-7929).
(§2) The primary technology we employed to measure cAMP accumulation was a homogenous time-resolved fluorescence (HTRF) assay, the same technology utilized in the primary screen. […] This could be due to either 1) the chemical scaffolds are exquisitely selective toward the AC family of enzymes or 2) the library has not been screened against a sufficient number of targets. The answer is likely a combination of the two; nonetheless, the lack of biological data to date bodes well for these series and any potential off-target promiscuity.
(§3) Human embryonic kidney (HEK) cells stably expressing AC1, AC8, or AC1 with the MOR were cultured in Dulbecco's Modified Eagle Medium (Life Technologies, Grand Island, N.Y.) supplemented with 5% bovine calf serum (Hyclone, Logan, Utah), 5% fetal clone I (Hyclone), Antibiotic-Antimycotic (Life Technologies), and G418 (Invivogen, San Diego, Calif.) (HEK-AC1), or hygromycin B (Fisher Scientific, Pittsburgh, Pa.) (HEK-AC8), or G418 and puromycin (Sigma-Aldrich) (HEK-AC1/MOR). Chinese hamster ovary (CHO) cells expressing the MOR (CHO-MOR) in the PathHunter® β-Arrestin GPCR assay platform were purchased from DiscoveRx (Freemont, Calif.). Cells were grown in Ham's F12 media supplemented with 1 mM L-glutamine (Thermo Scientific, West Palm Beach, Fla.), 10% fetal bovine serum (Hyclone), 50 U/ml penicillin, 50 μg/ml streptomycin (Life Technologies), G418 and hygromycin B. Cells were grown and frozen as previously described (J. M. Conley, et al., J Vis Exp, e51218 (2014)).
(§4) Cyclic AMP accumulation was measured as previously described (Brust, et al., J. Pharmacol. Exp. Ther. 352, 480-493(2015)). Briefly, cryopreserved cells were thawed, resuspended in optiMEM (Life Technologies), and plated in white, flat bottom, low-volume, tissue culture-treated 384 well plates (PerkinElmer, Shelton, Conn.). Plates with cells were incubated in a 37° C. humidified incubator for 1 h. Inhibitors were added and plates were incubated at room temperature for 30 min followed by the addition of AC stimulants in the presence of 500 μM IBMX. Cells were incubated at room temperature for 1 h and cAMP accumulation was measured using Cisbio's cAMP kit (Cisbio Bioassays, Bedford, Mass.) according to the manufacturer's instructions.

In another assay the target is T2, hAC1 (Homo sapiens, UniProt Q08828).
T2 construct: expressed in transfected cells
Put plainly: Cyclic AMP accumulation in HEK cells stably expressing AC1, stimulated with A23187 (HTRF). Format: cell-based. The note with it: HEK-AC1 cells; for inhibition at 30 µM: HEK293; for IC50: read-out: HEK-AC1 IC50. The protocol: The development and mechanistic characterization of AC1-selective small molecule inhibitors is believed to provide novel non-opioid weapons in the war on chronic pain. We identified our initial hits via screening 10,000 selected compounds from the Life Chemicals collection. The screen was carried out using HEK cells stably expressing AC1 (HEK-AC1) and cyclic AMP accumulation was stimulated using the Ca^2+ ionophore, A23187 to selectively activate AC1. Compounds with potential chemical liabilities and PAINs were removed from further evaluation (Baell and Holloway, J. Med. Chem. 2010, 53, 2719-2740).
as §1, §2, §3, §4
A general note: TR-FRET usually uses a lanthanide donor and a delayed reading to cut background.

T1 sequence (P40145 whole entry): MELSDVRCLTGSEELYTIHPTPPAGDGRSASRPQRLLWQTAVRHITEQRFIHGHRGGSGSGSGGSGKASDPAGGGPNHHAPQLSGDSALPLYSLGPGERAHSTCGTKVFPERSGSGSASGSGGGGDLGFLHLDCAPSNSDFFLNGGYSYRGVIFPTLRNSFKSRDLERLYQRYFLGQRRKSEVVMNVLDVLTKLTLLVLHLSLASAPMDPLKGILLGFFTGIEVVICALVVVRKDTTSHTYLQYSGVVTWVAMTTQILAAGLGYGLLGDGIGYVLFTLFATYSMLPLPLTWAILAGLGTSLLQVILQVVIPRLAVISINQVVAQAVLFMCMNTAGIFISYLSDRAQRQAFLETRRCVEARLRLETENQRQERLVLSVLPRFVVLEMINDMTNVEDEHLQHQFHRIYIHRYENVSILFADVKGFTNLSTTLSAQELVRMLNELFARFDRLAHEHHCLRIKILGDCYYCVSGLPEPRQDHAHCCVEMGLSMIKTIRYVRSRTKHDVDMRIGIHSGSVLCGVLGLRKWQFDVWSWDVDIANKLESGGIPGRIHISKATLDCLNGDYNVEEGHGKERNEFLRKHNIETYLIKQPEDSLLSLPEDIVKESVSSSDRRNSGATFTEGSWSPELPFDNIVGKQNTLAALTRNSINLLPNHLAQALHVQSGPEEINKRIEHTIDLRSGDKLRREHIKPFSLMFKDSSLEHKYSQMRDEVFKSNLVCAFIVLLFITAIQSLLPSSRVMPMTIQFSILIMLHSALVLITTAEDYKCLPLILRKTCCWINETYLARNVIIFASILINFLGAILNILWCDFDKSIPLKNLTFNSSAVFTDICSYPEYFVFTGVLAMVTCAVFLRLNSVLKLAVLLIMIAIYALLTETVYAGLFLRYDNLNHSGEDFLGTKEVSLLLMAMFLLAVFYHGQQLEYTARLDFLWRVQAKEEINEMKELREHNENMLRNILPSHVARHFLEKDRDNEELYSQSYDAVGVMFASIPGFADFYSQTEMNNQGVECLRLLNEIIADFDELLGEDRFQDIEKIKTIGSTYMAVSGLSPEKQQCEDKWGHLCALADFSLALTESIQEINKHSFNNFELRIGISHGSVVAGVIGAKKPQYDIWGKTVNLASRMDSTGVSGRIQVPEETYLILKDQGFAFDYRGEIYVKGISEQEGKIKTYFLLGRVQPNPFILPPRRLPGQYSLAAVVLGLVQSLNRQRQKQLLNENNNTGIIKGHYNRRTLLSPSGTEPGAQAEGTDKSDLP
T2 sequence (Q08828 whole entry): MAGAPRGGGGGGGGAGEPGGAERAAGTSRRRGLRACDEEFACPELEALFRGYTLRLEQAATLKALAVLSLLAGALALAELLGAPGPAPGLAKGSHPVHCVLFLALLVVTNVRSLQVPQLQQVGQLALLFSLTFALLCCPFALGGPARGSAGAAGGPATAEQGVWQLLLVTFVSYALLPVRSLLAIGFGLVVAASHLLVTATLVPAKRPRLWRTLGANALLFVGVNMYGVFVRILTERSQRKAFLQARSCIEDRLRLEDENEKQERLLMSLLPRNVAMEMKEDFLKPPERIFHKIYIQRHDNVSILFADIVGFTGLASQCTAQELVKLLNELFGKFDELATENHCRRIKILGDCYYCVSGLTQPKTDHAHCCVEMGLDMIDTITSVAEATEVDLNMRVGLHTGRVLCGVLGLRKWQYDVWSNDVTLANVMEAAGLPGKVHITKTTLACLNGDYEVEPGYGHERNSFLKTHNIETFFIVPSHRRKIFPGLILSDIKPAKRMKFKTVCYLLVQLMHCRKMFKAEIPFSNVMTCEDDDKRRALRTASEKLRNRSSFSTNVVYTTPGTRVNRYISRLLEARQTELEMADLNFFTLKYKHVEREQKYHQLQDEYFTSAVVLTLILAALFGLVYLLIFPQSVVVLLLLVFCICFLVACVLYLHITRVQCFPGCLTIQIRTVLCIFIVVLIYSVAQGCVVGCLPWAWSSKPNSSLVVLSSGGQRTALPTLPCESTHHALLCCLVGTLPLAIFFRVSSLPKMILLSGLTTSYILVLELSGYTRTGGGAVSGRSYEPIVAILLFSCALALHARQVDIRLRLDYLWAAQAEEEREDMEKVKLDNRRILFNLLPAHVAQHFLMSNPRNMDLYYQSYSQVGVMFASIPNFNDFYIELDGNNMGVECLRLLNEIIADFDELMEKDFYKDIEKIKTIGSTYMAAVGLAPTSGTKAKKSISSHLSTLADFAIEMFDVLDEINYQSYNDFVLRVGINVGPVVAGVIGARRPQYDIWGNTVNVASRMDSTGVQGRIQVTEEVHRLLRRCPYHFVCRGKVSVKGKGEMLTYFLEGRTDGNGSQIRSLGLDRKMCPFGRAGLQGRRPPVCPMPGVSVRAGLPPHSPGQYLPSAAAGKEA

As a reminder, the inhibition is the change of the read-out against control, counted positive when it falls. What is called IC50 is the concentration that inhibits the measured activity by half. For the compound `O=C(Nc1nnc(-c2ccc3c(c2)OCCO3)o1)c1ccccc1` [AC10001, N-(5-(2,3-dihydrobenzo[b][1,4]dioxin-6-yl)-1,3,4-oxadiazol-2-yl)benzamide], on hAC8, the inhibition at 30 µM was 24 ± 7% and the 50% inhibitory concentration (IC50) was 102 ± 26 µM. At hAC1, the inhibition at 30 µM was determined as 60 ± 3% and the IC50 was determined as 31 ± 3 µM.

Regarding `O=C(Nc1nnc(-c2ccc3c(c2)CCCC3)o1)c1ccccc1` [AC10002, N-(5-(5,6,7,8-tetrahydronaphthalen-2-yl)-1,3,4-oxadiazol-2-yl)benzamide], on hAC8, the inhibition at 30 µM is 80 ± 6% and the half-maximal inhibitory concentration (IC50) came out at 19.1 ± 5 µM. For the same compound, at hAC1, the inhibition at 30 µM was 100 ± 1% and the IC50 was determined as 3.4 ± 1 µM.

In the case of `O=C(Nc1nnc(C2CCCCC2)o1)c1ccccc1` [AC10003, N-(5-cyclohexyl-1,3,4-oxadiazol-2-yl)benzamide], the inhibition at 30 µM at hAC8 came to 3 ± 6%; on hAC1, 65 ± 4%. On hAC1, the IC50 came to 24.5 ± 2 µM.

As to `O=C(Nc1nnc(-c2ccc(F)cc2)o1)c1ccccc1` [AC10004, N-(5-(4-fluorophenyl)-1,3,4-oxadiazol-2-yl)benzamide], the inhibition at 30 µM on hAC8 was 8 ± 2%. Also, at hAC1, the inhibition at 30 µM came to 65 ± 8% and the concentration for half-maximal inhibition (IC50) is 29 ± 10 µM.

`O=C(Nc1nnc(-c2ccc3c(c2)CCCC3)o1)c1ccc(Br)cc1` [AC10005, 4-bromo-N-(5-(5,6,7,8-tetrahydronaphthalen-2-yl)-1,3,4-oxadiazol-2-yl)benzamide]: on hAC8, the inhibition at 30 µM was found to be 64 ± 13% and the IC50 amounted to 27 ± 8 µM. For the same compound, at hAC1, the inhibition at 30 µM stood at 74 ± 4% and the IC50 was found to be 12.2 ± 3 µM.

For `O=C(Nc1nnc(-c2cccs2)o1)c1ccccc1` [AC10006, N-(5-(thiophen-2-yl)-1,3,4-oxadiazol-2-yl)benzamide], the inhibition at 30 µM on hAC8 stood at 18 ± 2%; on hAC1, 56 ± 5%. For the same compound, the half-inhibitory concentration (IC50) on hAC8 stood at 101 ± 3 µM; on hAC1, 29 ± 3 µM.

On to `O=C(Nc1nnc(C2CCCCC2)o1)c1ccc(Br)cc1` [AC10007, 4-bromo-N-(5-cyclohexyl-1,3,4-oxadiazol-2-yl)benzamide], for which, on hAC8, the inhibition at 30 µM worked out at 71 ± 11% and the IC50 is 25 ± 8 µM. Besides, at hAC1, the inhibition at 30 µM is 82 ± 7% and the IC50 came out at 8.6 ± 3 µM.

For the compound `O=C(Nc1nnc(-c2ccc(F)cc2)o1)c1ccc(Br)cc1` [AC10008, 4-bromo-N-(5-(4-fluorophenyl)-1,3,4-oxadiazol-2-yl)benzamide], on hAC8, the inhibition at 30 µM was 33 ± 3% and the 50% inhibitory concentration (IC50) turned out to be 71 ± 18 µM. Also, at hAC1, the inhibition at 30 µM is 78 ± 3% and the IC50 turned out to be 10 ± 1 µM.

As to `O=C(Nc1nnc(-c2cccs2)o1)c1ccc(Br)cc1` [AC10009, 4-Bromo-N-(5-(thiophen-2-yl)-1,3,4-oxadiazol-2-yl)benzamide], the inhibition at 30 µM at hAC8 stood at 41 ± 9%; on hAC1, 81 ± 1%. In addition, the IC50 at hAC8 was 55 ± 20 µM; at hAC1, 7.7 ± 1 µM.

On to `CC(C)Oc1ccc(C(=O)Nc2nnc(-c3ccc4c(c3)CCCC4)o2)cc1` [AC10010, 4-isopropoxy-N-(5-(5,6,7,8-tetrahydronaphthalen-2-yl)-1,3,4-oxadiazol-2-yl)benzamide], for which the figures for the inhibition at 30 µM at hAC8 and on hAC1 were 63 ± 7% and 77 ± 13%, respectively. The 50% inhibitory concentration (IC50) on hAC8 came out at 12.6 ± 6 µM; on hAC1 it was 9.9 ± 7 µM.

Take `CSc1cccc(C(=O)Nc2nnc(C3CCCCC3)o2)c1` [AC10011, N-(5-cyclohexyl-1,3,4-oxadiazol-2-yl)-3-(methylthio)benzamide]: at hAC8, the inhibition at 30 µM is 43 ± 6% and the IC50 worked out at 61 ± 22 µM. Moreover, on hAC1, the inhibition at 30 µM was determined as 77 ± 8% and the half-maximal inhibitory concentration (IC50) turned out to be 6.6 ± 3 µM.

On to `CSc1cccc(C(=O)Nc2nnc(-c3cccs3)o2)c1` [AC10012, 3-(methylthio)-N-(5-(thiophen-2-yl)-1,3,4-oxadiazol-2-yl)benzamide], for which, at hAC8, the inhibition at 30 µM stood at 34 ± 1% and the concentration for half-maximal inhibition (IC50) amounted to 66 ± 2 µM. Besides, at hAC1, the inhibition at 30 µM was 84 ± 5% and the IC50 came out at 11 ± 2 µM.

`CSc1cccc(C(=O)Nc2nnc(-c3ccc4c(c3)CCCC4)o2)c1` [AC10013, 3-(methylthio)-N-(5-(5,6,7,8-tetrahydronaphthalen-2-yl)-1,3,4-oxadiazol-2-yl)benzamide]: at hAC8, the inhibition at 30 µM came to 68 ± 5% and the IC50 is 9.4 ± 2 µM. Moreover, on hAC1, the inhibition at 30 µM was 97 ± 4% and the IC50 came out at 1.7 ± 0.7 µM.

With `O=C(Nc1nnc(-c2ccc3c(c2)OCCO3)o1)c1ccc(Br)cc1` [AC10015, 4-bromo-N-(5-(2,3-dihydrobenzo[b][1,4]dioxin-6-yl)-1,3,4-oxadiazol-2-yl)benzamide], at hAC8, the inhibition at 30 µM amounted to 68 ± 0.5% and the half-inhibitory concentration (IC50) amounted to 23 ± 3 µM. On hAC1, the inhibition at 30 µM is 101 ± 0.4% and the 50% inhibitory concentration (IC50) turned out to be 3.4 ± 0.6 µM.

Turning to `COc1cccc(C(=O)Nc2nnc(-c3ccc4c(c3)CCCC4)o2)c1` [AC10016, 3-methoxy-N-(5-(5,6,7,8-tetrahydronaphthalen-2-yl)-1,3,4-oxadiazol-2-yl)benzamide], on hAC8, the inhibition at 30 µM came out at 55 ± 3% and the concentration for half-maximal inhibition (IC50) was 25 ± 4 µM. For the same compound, on hAC1, the inhibition at 30 µM amounted to 99% and the half-inhibitory concentration (IC50) is 3.1 ± 0.4 µM.

As to `CC(C)Oc1ccc(C(=O)Nc2nnc(-c3cccs3)o2)cc1` [AC10017, 4-isopropoxy-N-(5-(thiophen-2-yl)-1,3,4-oxadiazol-2-yl)benzamide], at hAC8, the inhibition at 30 µM was 35 ± 4% and the concentration for half-maximal inhibition (IC50) worked out at 83 ± 22 µM. Moreover, on hAC1, the inhibition at 30 µM turned out to be 84 ± 5% and the half-inhibitory concentration (IC50) amounted to 10.7 ± 2 µM.

Turning to `COc1ccc(C(=O)Nc2nnc(-c3cccs3)o2)cc1` [AC10018, 4-methoxy-N-(5-(thiophen-2-yl)-1,3,4-oxadiazol-2-yl)benzamide], the inhibition at 30 µM on hAC8 was found to be 10 ± 7%. Besides, on hAC1, the inhibition at 30 µM was determined as 80 ± 5% and the IC50 was 15 ± 2 µM.

For the compound `CSc1ccc(C(=O)Nc2nnc(-c3ccc4c(c3)OCCO4)o2)cc1` [AC10020, 4-methylthio-N-(5-(2,3-dihydrobenzo[b][1,4]dioxin-6-yl)-1,3,4-oxadiazol-2-yl)benzamide], the values for the inhibition at 30 µM on hAC8 and on hAC1 were 37 ± 9% and 88 ± 5%, respectively. Further, the IC50 at hAC8 worked out at 76 ± 39 µM; at hAC1, 9.5 ± 1 µM.

In the case of `O=C(Nc1nnc(C2CCCCC2)o1)c1cccc(C(F)(F)F)c1` [AC10021, N-(5-cyclohexyl-1,3,4-oxadiazol-2-yl)-3-(trifluoromethyl)benzamide], at hAC8, the inhibition at 30 µM amounted to 62 ± 8% and the half-maximal inhibitory concentration (IC50) worked out at 33 ± 8 µM. Besides, at hAC1, the inhibition at 30 µM worked out at 99 ± 1% and the concentration for half-maximal inhibition (IC50) came to 6 ± 0.6 µM.

As for `O=C(Nc1nnc(-c2ccc3c(c2)OCCO3)o1)c1cccc(C(F)(F)F)c1` [AC10023, N-(5-(2,3-dihydrobenzo[b][1,4]dioxin-6-yl)-1,3,4-oxadiazol-2-yl)-3-(trifluoromethyl)benzamide], on hAC8, the inhibition at 30 µM was 60 ± 8% and the half-maximal inhibitory concentration (IC50) amounted to 32 ± 12 µM. At hAC1, the inhibition at 30 µM was 100 ± 0.2% and the IC50 was found to be 5.1 ± 0.7 µM.

With `Cc1ccc(C(=O)Nc2nnc(C3CCCCC3)o2)cc1C` [AC10024, N-(5-cyclohexyl-1,3,4-oxadiazol-2-yl)-3,4-dimethylbenzamide], on hAC8, the inhibition at 30 µM is 57 ± 7% and the IC50 came out at 44 ± 6 µM. Moreover, at hAC1, the inhibition at 30 µM was 85 ± 4% and the IC50 worked out at 8.1 ± 2 µM.

Regarding `CC(C)Oc1ccc(C(=O)Nc2nnc(C3CCCCC3)o2)cc1` [AC10025, N-(5-cyclohexyl-1,3,4-oxadiazol-2-yl)-4-isopropoxybenzamide], on hAC8, the inhibition at 30 µM was 35 ± 8% and the IC50 came out at 53 ± 21 µM. At hAC1, the inhibition at 30 µM stood at 86 ± 7% and the IC50 turned out to be 10.1 ± 1 µM.
